TGI data for 15 molecules are collected here from PubChem BioAssay (NCI).

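In this assay, cells in 96-well plates receive the compound at five concentrations for 48 hours. Endpoints are linearly interpolated between the surrounding concentrations. At the TGI there is no net growth.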

Among the test systems are SF-539 CNS; TK-10 renal; SNB-19 CNS; HL-60(TB) leukemia; UACC-62 melanoma; SF-295 CNS; SK-MEL-28 melanoma; UACC-257 melanoma; HCT-116 colon; RPMI-8226 leukemia.
Holding throughout (assay): NCI-60 cell line screen, 48 h

For `CCN(CC)C(=O)Cn1c(C)cc2ccccc21`, the TGI in the test with SF-539 CNS, in the test with TK-10 renal, with SNB-19 CNS, in the test with HL-60(TB) leukemia, in the test with UACC-62 melanoma and with SF-295 CNS was > 100 µM each time. Besides, the TGI in the test on SK-MEL-28 melanoma, with UACC-257 melanoma, in the test on HCT-116 colon and with RPMI-8226 leukemia was > 100 µM each time.

Turning to `Cc1cc(S(=O)(=O)N=C2N(Cc3ccccc3)CCN2Cc2ccccc2)c(S)cc1Cl`, the TGI in the test with SF-539 CNS, in the test on TK-10 renal, in the test on SNB-19 CNS, with HL-60(TB) leukemia, with UACC-62 melanoma and in the test with SF-295 CNS was > 100 µM throughout. The TGI in the test on SK-MEL-28 melanoma, in the test on UACC-257 melanoma, in the test with HCT-116 colon and in the test on RPMI-8226 leukemia was > 100 µM in each case.

In the case of `CCN(CC)CCNc1nc2ccc([N+](=O)[O-])cc2[n+]([O-])n1`, the TGI with SF-539 CNS is 54.2 µM; with TK-10 renal it was > 100 µM; with SNB-19 CNS, > 100 µM; in the test on HL-60(TB) leukemia, 17.9 µM; in the test on UACC-62 melanoma, 35 µM; in the test on SF-295 CNS, 82.1 µM. The TGI with SK-MEL-28 melanoma was > 100 µM; in the test on UACC-257 melanoma, 31.2 µM; in the test with HCT-116 colon it was 49.6 µM; with RPMI-8226 leukemia, 44.9 µM.

As to `O=C(N/N=C/c1ccccc1)c1c(-c2cccnc2)cnc2ccccc12`, the TGI with SF-539 CNS, with TK-10 renal, with SNB-19 CNS, in the test with HL-60(TB) leukemia, with UACC-62 melanoma and in the test on SF-295 CNS was > 100 µM throughout. Moreover, the TGI with SK-MEL-28 melanoma, in the test with UACC-257 melanoma, in the test on HCT-116 colon and in the test with RPMI-8226 leukemia was > 100 µM each time.

As to `Cc1ccc(SCC(CF)OC(C)n2cnc3c(=O)[nH]c(N)nc32)cc1` (stereo not given), the TGI with SF-539 CNS, in the test with TK-10 renal, in the test on SNB-19 CNS, in the test on HL-60(TB) leukemia, in the test with UACC-62 melanoma and in the test on SF-295 CNS was > 100 µM throughout. In addition, the TGI in the test with SK-MEL-28 melanoma, in the test on UACC-257 melanoma, in the test with HCT-116 colon and in the test with RPMI-8226 leukemia was > 100 µM in each case.

As for `Cn1cc(NC(=O)c2cc(NC(=O)CN=C(N)N)cn2C)cc1C(=O)NCCC(=N)N`, the TGI in the test with SF-539 CNS, in the test on TK-10 renal, in the test on SNB-19 CNS, with HL-60(TB) leukemia, with UACC-62 melanoma and in the test with SF-295 CNS was > 100 µM in each case. Moreover, the TGI in the test with SK-MEL-28 melanoma, in the test on UACC-257 melanoma, in the test on HCT-116 colon and in the test with RPMI-8226 leukemia was > 100 µM throughout.

Turning to `O=C(O)Cc1cccc2c(=O)c3ccccc3oc12`, the TGI in the test with SF-539 CNS was > 100 µM; in the test on TK-10 renal, > 100 µM; in the test with SNB-19 CNS, > 100 µM; with HL-60(TB) leukemia, > 100 µM; in the test with UACC-62 melanoma, 77.2 µM; with SF-295 CNS, > 100 µM. Also, the TGI in the test on SK-MEL-28 melanoma, with UACC-257 melanoma, in the test with HCT-116 colon and in the test with RPMI-8226 leukemia was > 100 µM each time.

For the molecule `COC[C@@H](C[C@H]1O[C@@](O)([C@H](O)[C@@H]2C[C@H](OC)[C@@H](O)CC/C=C(C)/C=C/[C@@H](O[C@@H]3O[C@@H](C)[C@H](OC)[C@@H](O)[C@@H]3O)[C@H](C)/C=C(C)/C=C(C)/C=C(\C)C(=O)O2)[C@H](C)[C@@H](O)[C@H]1C)O[C@H]1C[C@](C)(O)[C@@H](O[C@H]2C[C@@H](OC)[C@H](O)[C@@H](C)O2)C(C)O1` (stereo not given in full), the TGI in the test on SF-539 CNS, in the test with TK-10 renal, in the test on SNB-19 CNS, in the test with HL-60(TB) leukemia, in the test with UACC-62 melanoma and with SF-295 CNS was > 100 µM each time. Also, the TGI is > 100 µM in the test on SK-MEL-28 melanoma, 26.5 µM with UACC-257 melanoma, > 100 µM in the test on HCT-116 colon and > 100 µM in the test on RPMI-8226 leukemia.

`COc1cc(C(=O)N(Cc2cccnc2)C(=S)N(Cc2cccnc2)C(=O)c2cc(OC)c(OC)c(OC)c2)cc(OC)c1OC`: the TGI in the test on SF-539 CNS was > 100 µM; with TK-10 renal, > 100 µM; in the test with SNB-19 CNS it was > 100 µM; with HL-60(TB) leukemia, > 100 µM; in the test with UACC-62 melanoma, 73.9 µM; in the test with SF-295 CNS, > 100 µM. For the same molecule, the TGI with SK-MEL-28 melanoma, in the test on UACC-257 melanoma, in the test on HCT-116 colon and with RPMI-8226 leukemia was > 100 µM each time.

As for `CC(=O)OCC12C(=O)C[C@@H](C)C3(CC(c4ccoc4)OC3=O)C1CCC(OC(C)=O)C21CO1` (stereo not given in full), the TGI in the test on SF-539 CNS, in the test with TK-10 renal, in the test with SNB-19 CNS, with HL-60(TB) leukemia, in the test on UACC-62 melanoma and with SF-295 CNS was > 100 µM each time. The TGI in the test with SK-MEL-28 melanoma, in the test on UACC-257 melanoma, with HCT-116 colon and in the test with RPMI-8226 leukemia was > 100 µM throughout.

For `COc1cc(Cn2c3c(c4cc(O)ccc42)Cc2ccccc2C3=O)cc(OC)c1`, the TGI with SF-539 CNS was > 100 µM; with TK-10 renal, > 100 µM; in the test with SNB-19 CNS, > 100 µM; in the test with HL-60(TB) leukemia, > 100 µM; in the test with UACC-62 melanoma, > 100 µM; in the test with SF-295 CNS, 93.9 µM. Further, the TGI in the test on SK-MEL-28 melanoma was > 100 µM; in the test with UACC-257 melanoma it was > 100 µM; in the test on HCT-116 colon, > 100 µM; in the test on RPMI-8226 leukemia, 26.5 µM.

For `CCOCc1nc2c(OC)cc(-c3nc4ccc(N5CCN(C)CC5)cc4[nH]3)c(OC)c2[nH]1`, the TGI in the test with SF-539 CNS is 36.1 µM; in the test on TK-10 renal, > 100 µM; in the test with SNB-19 CNS, > 100 µM; in the test with HL-60(TB) leukemia, 21.1 µM; in the test on UACC-62 melanoma, 34.6 µM; in the test on SF-295 CNS it was 36.8 µM. In addition, the TGI in the test on SK-MEL-28 melanoma is 36.3 µM; in the test with UACC-257 melanoma, 34.4 µM; with HCT-116 colon, > 100 µM; with RPMI-8226 leukemia, > 100 µM.

For `O=C1CC(=Nc2ccc(Cl)cc2)C(c2ccccc2)N1c1ccccc1` (stereo not given), the TGI in the test on SF-539 CNS was 94.8 µM; in the test on TK-10 renal, > 100 µM; in the test on SNB-19 CNS it was > 100 µM; in the test with HL-60(TB) leukemia it was 21.3 µM; in the test with UACC-62 melanoma, 6.6 µM; in the test on SF-295 CNS, > 100 µM. In addition, the TGI in the test with SK-MEL-28 melanoma was > 100 µM; with UACC-257 melanoma, > 100 µM; with HCT-116 colon, 65.1 µM; with RPMI-8226 leukemia it was 13.1 µM.

Turning to `O=Cc1c(C(=O)O)[nH]c(=O)[nH]c1=O`, the TGI with SF-539 CNS, with TK-10 renal, in the test on SNB-19 CNS, in the test on HL-60(TB) leukemia, in the test on UACC-62 melanoma and with SF-295 CNS was > 100 µM in each case. The TGI in the test with SK-MEL-28 melanoma, in the test with UACC-257 melanoma, in the test with HCT-116 colon and in the test with RPMI-8226 leukemia was > 100 µM each time.

In the case of `C[N+](C)(C)CC1CCCCCCCCCCC1=O` (stereo not given), the TGI with SF-539 CNS, in the test on TK-10 renal, in the test on SNB-19 CNS, in the test on HL-60(TB) leukemia, with UACC-62 melanoma and with SF-295 CNS was > 100 µM in each case. The TGI in the test on SK-MEL-28 melanoma, with UACC-257 melanoma, with HCT-116 colon and in the test with RPMI-8226 leukemia was > 100 µM throughout.
